# Target: T1, human CCR5 (Homo sapiens, UniProt P51681)
# T1 construct: expressed in transfected cells
# Assay: inhibition of [125I]-RANTES binding to CCR5/CHO cells
# Details: test compound 1 μM, 100 pM [125I]-RANTES, room temperature, 40 minutes
# Experimental: (1) Cloning of Human CCR5 Chemokine Receptor
# Cloning of a CCR5 gene was conducted from human spleen cDNA by a PCR method. Using 0.5 ng of spleen cDNA (Toyobo Co., Ltd., QUICK-Clone cDNA) as a template, the PCR reaction was carried out in a DNA Thermal Cycler 480 (Perkin Elmer) using a TaKaRa EX Taq (Takara Shuzo Co., Ltd.) (reaction conditions: 30 cycles of treatments at 95° C. for 1 minute, at 60° C. for 1 minute, and at 75° C. for 5 minutes) by adding 25 pmol of primers, SEQ ID NO. 1 (sequence length: 34; sequence type: nucleic acid; number of chains: a single chain; topology: linear; sequence kind: other nucleic acid, synthetic DNA) described in Experimental Example (1) of WO 99/32100, and SEQ ID NO. 2 (sequence length: 34; sequence type: nucleic acid; number of chains: a single chain; topology: linear; sequence kind: other nucleic acid, synthetic DNA) described in Experimental Example (1) of WO 99/32100, respectively, which were prepared by referring to the base sequence of the CCR5 gene described by Samson et al. (Biochemistry 35 (11), 3362-3367 (1996)). The PCR products were subjected to agarose gel electrophoresis to collect DNA fragments of about 1.0 kb. Then, the CCR5 gene was cloned using an Original TA Cloning Kit (Funakoshi Co., Ltd.).
# (2) Preparation of Plasmid for Expression of Human CCR5
# The plasmids obtained above were digested with restriction enzymes XbaI (Takara Shuzo Co., Ltd.) and BamHI (Takara Shuzo Co., Ltd.), and subjected to agarose gel electrophoresis to collect DNA fragments of about 1.0 kb. The DNA fragments and a plasmid pcDNA3.1 (Funakoshi Co., Ltd.) for expression in animal cells, which was previously digested with XbaI and BamHI, were mixed and ligated by DNA Ligation Kit Ver. 2 (Takara Shuzo Co., Ltd.). Transformation of E. coli JM109 competent cells (Takara Shuzo Co., Ltd.) gave plasmid pCKR5.
# (3) Introduction of the Plasmid for Expression of Human CCR5 into CHO-K1 Cells and Expression Thereof
# CHO-K1 cells grown in a 750 ml tissue culture flask (Becton Dickinson) using Ham's F12 medium (Nihon Pharmaceutical Co., Ltd.) containing 10% fetal bovine serum (Lifetech Oriental) were collected from the flask by using 0.5 g/L trypsin-0.2 g/L EDTA (Lifetech Oriental). The cells were then washed with PBS (Lifetech Oriental), centrifuged (1000 rpm, 5 minutes), and suspended in PBS. Next, DNA was introduced into the cells using Gene Pulser (Bio-Rad Laboratories Inc.) under the following conditions. Namely, 8×10^6 cells and 10 μg of plasmid pCKR5 for expression of human CCR5 were added into a cuvette of a 0.4 cm-gap, and electroporation was carried out at an electric voltage of 0.25 kV and a capacitance of 960 μF. Subsequently, the cells were transferred into Ham's F12 medium containing 10% fetal bovine serum, and incubated for 24 hours. The cells were again collected, centrifuged, and then suspended in Ham's F12 medium containing 10% fetal bovine serum and Geneticin (Lifetech Oriental) at a concentration of 500 μg/ml. The suspension of cells was diluted to a concentration of 10^4 cells/ml, and inoculated on a 96-well plate (Becton Dickinson) to give Geneticin-resistant strains.
# Subsequently, the Geneticin-resistant strains were cultured in the 96-well plate (Becton Dickinson), and then CCR5-expressing cells were selected from the resistant strains. […] The cells to which the ligand bound specifically, i.e., CCR5/CHO strains, were selected by measurement of radioactivity by γ-counter. […]
# T1 sequence (P51681 whole entry): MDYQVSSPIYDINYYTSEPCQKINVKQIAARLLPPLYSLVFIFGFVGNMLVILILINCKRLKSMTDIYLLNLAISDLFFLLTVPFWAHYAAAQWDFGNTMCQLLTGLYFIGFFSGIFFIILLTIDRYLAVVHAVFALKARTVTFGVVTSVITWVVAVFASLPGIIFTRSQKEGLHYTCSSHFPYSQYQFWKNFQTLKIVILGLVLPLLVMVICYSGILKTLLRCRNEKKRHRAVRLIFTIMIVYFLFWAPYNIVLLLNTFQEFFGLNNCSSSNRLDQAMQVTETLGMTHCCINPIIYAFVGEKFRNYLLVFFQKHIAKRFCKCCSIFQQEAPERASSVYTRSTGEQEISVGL
row,Compound,Binding Inhibitory Ratio (%)
1,"CCCCOCCOc1ccc(-c2ccc3c(c2)C=C(C(=O)Nc2ccc([S+]([O-])Cc4cncn4CCC)cc2)CCC2CCCN32)cc1 (centres unmarked) [Compound 5, (Ss)-9-[4-(2butoxyethoxy)phenyl]-N-[4-[[(1-propyl-1H-imidazol-5-yl)methyl]sulfinyl]phenyl]-1,2,3,3a,4,5-hexahydropyrrolo[1,2-a][1]benzazocine-6-carboxamide]",96%
2,"CCCCOCCOc1ccc(-c2cnc3c(c2)C=C(C(=O)Nc2ccc([S@@+]([O-])Cc4cncn4CCC)cc2)CC[C@@H]2CCCN32)cc1 [Compound 16, (8aR,Ss)-3-[4-(2-butoxyethoxy)phenyl]-N-[4-[[(1-propyl-1H-imidazol-5-yl)methyl]sulfinyl]phenyl]-7,8,8a,9,10,11-hexahydropyrido[3,2-g]pyrrolo[1,2-a]azocine-6-carboxamide]",94%
3,"CCCCOCCOc1ccc(-c2cnc3c(c2)C=C(C(=O)Nc2ccc([S@@+]([O-])Cc4cncn4CCC)cc2)CCC2CCCN32)cc1 (some centres unmarked) [Compound 15, (Ss)-3-[4-(2-butoxyethoxy)phenyl]-N-[4-[[(1-propyl-1H-imidazol-5-yl)methyl]sulfinyl]phenyl]-7,8,8a,9,10,11-hexahydropyrido[3,2-g]pyrrolo[1,2-a]azocine-6-carboxamide]",100%
4,"CCCCOCCOc1ccc(-c2ccc3c(c2)C=C(C(=O)Nc2ccc([S+]([O-])Cc4cncn4CCC)cc2)CCC2CCCCN32)cc1 (centres unmarked) [Compound 8, (Ss)-10-[4-(2-butoxyethoxy)phenyl]-N-[[4-[(1-propyl-1H-imidazol-5-yl)methyl]sulfinyl]phenyl]-2,3,4,4a,5,6-hexahydropyrido[1,2-a][1]benzazocine-6-carboxamide]",97%
5,"CCCCOCCOc1ccc(-c2cnc3c(c2)C=C(C(=O)Nc2ccc([S@@+]([O-])Cc4cncn4CCC)cc2)CC[C@H]2CCCN32)cc1 [Compound 17, (8aS,Ss)-3-[4-(2-butoxyethoxy)phenyl]-N-[4-[[(1-propyl-1H-imidazol-5-yl)methyl]sulfinyl]phenyl]-7,8,8a,9,10,11-hexahydropyrido[3,2-g]pyrrolo[1,2-a]azocine-6-carboxamide]",98%
